Here are results for two molecules from patent US20260263334A1, “COMPOSITIONS CONTAINING NITRATE-RICH FOODS AND EXTRACTS FOR SHIFTING THE ORAL MICROBIOME” (WM. WRIGLEY JR. COMPANY, priority 2023, published 2026).

Assay [1] has as its system salivary bacteria. In words: nitrate reductase (NR) activity of human salivary bacteria (Griess reagent). In kind it is cell-based. As to the method:
Human stimulated saliva was collected from two subjects and tested for NR activity in the presence of nitrate, cysteine and a combination of nitrate and cysteine. The Griess test was used for nitrite production.
Two subjects were evaluated in this study. The subjects refrained from oral hygiene and eating the night before and morning of the test and their stimulated saliva was collected after chewing 1 g of gum base for 5 minutes. The saliva samples were stored immediately on ice, diluted 1:1 with D.I. H2O and used as a bacterial source for nitrate reductase (NR) activity testing under anaerobic condition.
The contents in each reaction mixture contained (mL):
Detection of the end product of NR and nitrite was by the Griess reagent at OD550 nm readings.

For assay [2], the system named is saliva. In words: ex vivo production of H2S by saliva (headspace, gas chromatograph with chemiluminescent sulfur detector). The settings on record: saliva mixed with cysteine. In kind it is cell-based, human.
In assay [3] the test system is Veillonella atypica (ATCC 17744) (V.a.). As to the kind of experiment: nitrate reductase (NR) activity of V.a (Griess test). In kind it is cell-based. The settings on record: Cysteine 1%. On the procedure:
(§1) For evaluation of nitric oxide producing capability of oral bacteria, overnight cultures of test organisms were washed once and transferred into a medium without any nitrate or nitrite compounds. A 0.5% (or 1%) KNO3 was added to the medium, and further incubated anaerobically at 37° C. for 24-48 hours. The concentration of nitrite (due to reduction of nitrate by nitrate reductase) was determined by Griess Test over a desired period of time.
(§2) To examine the effect of natural and chemical antimicrobial agents on NO production, test bacteria were pre-exposed to magnolia bark extract (MBE) (a natural germ-kill compound), peppermint oil, and chlorhexidine (CHX). The activities of nitrate reductase from oral bacteria were assayed by Griess test as described above. No treatment controls were included for each test bacterial species. The production of nitrite was reduced if the test antimicrobial compounds affected the nitrate reductase activity. Dose response curves were prepared.
V. atypica was grown in RCM medium without (NH4)2SO4 (to avoid the NH4 affecting Griess reagent); and without agar (0.05%, to avoid affecting the OD measurement).
The method used was the same as that for A.a., except the V.a cell concentration was adjusted to OD550 nm=0.7 (10^8 CFR/ml) in Reduced Transport buffer. The NR activity was also determined in the same buffer system. […]
(§3) Test bacteria cells were incubated with 1% cysteine in growth medium and 0.3% of a nitrate source. Controls contained no cysteine.

Assay [4] concerns Aggregatibacter actinomycetemcomitans (A.a.). In words: nitrate reductase (NR) activity of A.a. (Griess test). In kind it is cell-based. To be noted: for NR activity (OD) of A.a in the presence of cysteine: Cysteine 1%, 0.3% nitrate source. On the procedure: as §1, §2
A. actinomycetemcomitans (A.a.) was grown anaerobically in THB broth supplemented with 1% yeast extract with 0.001% Hemin, and 0.0001% Vitamin K.
The nitrate source KNO3 (0.1% final) was added to respective growth media for individual test bacteria and incubated for 24-48 hours, then 20 μl of the culture broth was withdrawn and tested for nitrite with Griess reagent.
Test bacteria were grown in respective media anaerobically for 48 hours. Cells were centrifuged and re-suspended in buffer or fresh medium for NR activity testing. […]
as §3

Take `O=[N+]([O-])[O-].[K+]` [KNO3, potassium nitrate]: in assay [1] (KNO3 3%, saliva of two subjects), the “NR activity of salivary bacteria (nitrite production)” value was “induced NR activity”.

As to `N[C@@H](CS)C(=O)O` [cysteine, L-cysteine], in assay [2], the “H2S generated in the headspace air” value is given as 20 ppm. Further, the “NR activity (OD) of V.a in the presence of cysteine” value amounted to 0.372 OD in assay [3] (1st trial, 2 hr); 0.711 OD in assay [3] (1st trial, 3 hr); 0.487 OD in assay [3] (2nd trial, 2 hr); 0.808 OD in assay [3] (2nd trial, 3 hr); 1.139 OD in assay [3] (3rd trial, 2 hr); 1.144 OD in assay [3] (3rd trial, 3 hr). The “NR activity (OD) of A.a in the presence of cysteine” value amounted to 0.207 OD in assay [4] (1st trial, 2 hr); 0.672 OD in assay [4] (1st trial, 3 hr); 0.994 OD in assay [4] (2nd trial, 2 hr); 0.928 OD in assay [4] (2nd trial, 3 hr); 0.832 OD in assay [4] (3rd trial, 2 hr); 0.919 OD in assay [4] (3rd trial, 3 hr). Further, the “NR activity of A.a” value in assay [4] (addition of cysteine (1%)) is reported as “not significantly affected”. In assay [1] (addition of cysteine, pooled saliva from 4 subjects, OD600 nm=0.7, 1.0 and 1.5), the “reduction of NR activity” value was 23-49%. For the same molecule, in assay [1] (cysteine 0.25% in addition to nitrate (KNO3 3%), saliva of two subjects), the “NR activity of salivary bacteria” value was “decrease in NR activity”.
